{"source": "paper PMC8631740", "about": "(Nano Letters, 2021)", "target": "PDZ-mNG (Homo sapiens, UniProt Q96RT1)", "assay": "Binding kinetics of PDZ-mNG to peptDTWV in fixed COS7 cells", "format": "cell-based", "conditions": "PFA or PFA/GA fixation, compared with kinetics at nanoparticles; result in words", "data": [{"substance": "RGSIDTWV-cooh [peptDTWV]", "values": [{"measurement": "effect of fixation on peptDTWV/PDZ-mNG interaction", "result": "not affected by fixation"}]}]}
